The subject of data set [1] is Ishikawa (endometrial) cancer cell line. As to the kind of experiment: CellTiter-Glo antiproliferative activity, Ishikawa cell line. Format: cell-based, human. The note with it: 72 h exposure, in the presence of 10 nM estradiol; for IC50: Homo sapiens, Ishikawa. An excerpt:
Numerous substituted THIQs were systematically synthesized employing molecular design and structure activity relationship studies (Suresh et al., (2014) Lett. Drug Design & Discov. 11: 428-436; Gangapuram et al., (2014) J. Cancer Sci. Ther. 6: 161-169). The compounds' cytotoxic effects on MCF-7 (estrogen receptor positive breast cancer) cell lines, MDA-MB-231 (estrogen receptor negative breast cancer) cell lines and Ishikawa cell lines using CellTiter-Glo (CTG) luminescent cell viability essay were studied. The tests were done on different concentrations of the compounds ranging from 0.01 to 100,000 nM on 5000 MCF-7 cells/well, on 5000 MDA-MB-231 cells/well and on 5000 Ishikawa cells/well. Drug exposed cells were incubated at 37° C. for three days followed by CTG assay. Then IC50 values were generated from Graph Pad Prism 4. […]
(§1) The antiproliferative activities of substituted tetrahydroisoquinolines 2a-2m, 3a-3l and 4a-4f were evaluated according to the procedure reported previously (Crouch et al., (1993) J. Immunol. Methods 160: 81-88).
(§2) Human MCF-7 and MDA-MB-231 breast cancer cell lines were purchased from the NCI. The human Ishikawa endometrial cancer cell line was purchased from Sigma Aldrich. All three cell lines were cultured in phenol red-free RPMI-1640 (Hyclone) (500 mL) supplemented with L-glutamine-dipeptide (Hyclone) (5 mL), and 10% fetal bovine serum (Atlanta Biologicals) (50 mL).
(§3) The cell lines were cultured and treated with compounds under study including the standard TAM ranging from 0.01 nM to 100,000 nM concentration in the presence of 10 nM estradiol using the previous reported method (Suresh et al., (2014) Lett. Drug Des. Discov. 11: 428-436).
(§4) The amount of ATP is determined using a system based on luciferase and D-luciferin resulting in light generation.
(In general: ATP-based viability assays read luminescence as a measure of living cells.)

In data set [2] the test system is MCF-7 (ER positive breast cancer cell line). Put plainly: CellTiter-Glo antiproliferative activity, MCF-7 cell line. Format: cell-based, human. Particulars: for IC50 against MCF-7 cell line / IC50: 72 h exposure, in the presence of 10 nM estradiol; for antiproliferative activity against MCF-7 cell line in words: based on IC50 value; for IC50: Homo sapiens, MCF7, Table 1, read-out: IC50 MCF-7.
From the text: (§5) Numerous substituted THIQs were systematically synthesized employing molecular design and structure activity relationship studies (Suresh et al., (2014) Lett. Drug Design & Discov. 11: 428-436; Gangapuram et al., (2014) J. Cancer Sci. Ther. 6: 161-169). The compounds' cytotoxic effects on MCF-7 (estrogen receptor positive breast cancer) cell lines, MDA-MB-231 (estrogen receptor negative breast cancer) cell lines and Ishikawa cell lines using CellTiter-Glo (CTG) luminescent cell viability essay were studied. The tests were done on different concentrations of the compounds ranging from 0.01 to 100,000 nM on 5000 MCF-7 cells/well, on 5000 MDA-MB-231 cells/well and on 5000 Ishikawa cells/well. Drug exposed cells were incubated at 37° C. for three days followed by CTG assay. Then IC50 values were generated from Graph Pad Prism 4.
(§6) Chemistry: Several substituted tetrahydroisoquinolines 2d-2m, 3h, 3k, 3l, and 4a-4f were prepared according to three different procedures as shown in Schemes 1, 2 and 3 (FIGS. 2-4). […] The aminating agent 10 was prepared using a reported procedure (Tamura et al., (1972) J. Org. Chem. 40: 4133-4135). The amino salts of ring substituted 2-aminoisoquinolinium mesitylenesulfonates of general structure 11 used in the present study were prepared by the reaction of substituted isoquinolines and the aminating agent 10 as previously reported (Gangapuram et al., (2014) J. Cancer Sci. Ther. 6: 161-169). […] The aminating agent 13 was prepared using a reported procedure (Legault & Charette (2003) J. Org. Chem. 68: 7119-7122). The amino salts of ring substituted 2-aminoisoquinolinium compounds of general structure 14 were obtained with the reaction of the substituted isoquinolines and the aminating agent 13 in CH3CN heated at 50° C. for 24 hours. Without further purification, the salts were used to prepare the N-ylides by reaction with substituted acyl/sulfonyl chlorides. […] N-Oxidation of commercially available ring substituted THIQs followed by the reduction of the NO group using standard zinc/acetic acid led to the synthesis of N-amino THIQs.
as §1, §2, §3, §4

Data set [3] concerns MDA-MB-231 (ER negative breast carcinoma cell line). As to the kind of experiment: CellTiter-Glo antiproliferative activity, MDA-MB-231 cell line. Particulars: 72 h exposure, in the presence of 10 nM estradiol; for IC50: Homo sapiens, MDA-MB-231, Table 1. It is filed as cell-based, human.
From the text: as §5, §6, §1, §2, §3

Data set [4] has as its system MCF-7, MDA-MB-231, and Ishikawa cell lines. As to the kind of experiment: Antiproliferative activity, summary statements over the three cell lines. Particulars: MCF-7, MDA-MB-231 and Ishikawa cell lines together. It is filed as cell-based, human.
From the text: as §5, §6, §1, §2, §3

Data set [5] has as its system microtubule network. Particulars: Gangapuram et al. (2014); cited from earlier work.
Setting [6] is: Table 1, read-out: IC50 Ishikawa.

“Also recorded” adds a separate entry of the source. Like-named read-outs stand apart in the source and are kept apart here.

As usually defined, the IC50 is the concentration that gives 50% inhibition. As a reminder, the melting point is the temperature, or range, at which the solid turns liquid.

`CCc1ccc(C(=O)NN2CCc3ccc(O)cc3C2)cc1` [Compound 2b]: the “IC50 against Ishikawa cell line” value in data set [1] is 0.08 µg/mL. Also, in data set [2], the “IC50 against MCF-7 cell line” value worked out at 0.2 µg/mL and the “antiproliferative activity against MCF-7 cell line in words” value was “very active”. Also, the “IC50 against MDA-MB-231 cell line” value in data set [3] amounted to 0.13 µg/mL. For the same compound, the “antiproliferative activity in words” value in data set [4] is on record as “more active than the lead structure (1)”. Also, the microtubule-destabilizing activity entry in data set [5] was “potent microtubule-destabilizing agent”.

Consider `CCc1ccc(C(=O)NN2CCc3cccc(O)c3C2)cc1` [Compound 2i, 4-Ethyl-N-(8-hydroxy-3,4-dihydroisoquinolin-2(1H)-yl) benzamide], for which, in data set [1], the “IC50 against Ishikawa cell line” value was determined as 0.09 µg/mL. Further, in data set [2], the “IC50 against MCF-7 cell line” value was found to be 0.61 µg/mL and the “antiproliferative activity against MCF-7 cell line in words” value is “very active”. The “selectivity towards ER(+) MCF-7 compared to ER(−) MDA-MB-231 cell lines” value in data set [2] (MCF-7 versus MDA-MB-231 IC50) is given as “significant selectivity; also recorded: reasonable selectivity”. Further, the “IC50 against MDA-MB-231 cell line” value in data set [3] stood at 1.36 µg/mL. In data set [4], the “antiproliferative activity in words” value is given as “active”.

The compound `CCc1ccc(C(=O)Nc2cccc3c2CN(NC(=O)c2ccc(CC)cc2)CC3)cc1` [Compound 2j, N,N′-(3,4-dihydroisoquinoline-2,8(1H)-diyl)bis(4-ethylbenzamide)] showed a melting point of 113.2 to 116.4 °C. Also, in data set [1] (setting [6]), the IC50 was 2.74 µg/mL. Further, the IC50 in data set [2] came out at 9.35 µg/mL. In addition, the IC50 in data set [3] stood at 9.71 µg/mL. Further, the “antiproliferative activity in words” value in data set [4] is “less active”.

With `CCc1ccc(C(=O)Nc2cccc3c2CCN(NC(=O)c2ccc(CC)cc2)C3)cc1` [Compound 3c, N,N′-(3,4-Dihydroisoquinoline-2, 5(1H)-diyl)bis(4-ethylbenzamide)], the melting point lay within 216 to 218 °C. Besides, in data set [1] (setting [6]), the IC50 was 9.45 µg/mL. In data set [2], the 50% inhibitory concentration (IC50) is 4.59 µg/mL. Besides, in data set [3], the IC50 amounted to 6.1 µg/mL. Further, the “antiproliferative activity in words” value in data set [4] was “less active”.

With `CCc1ccc(C(=O)NN2CCc3c(cccc3NC(C)=O)C2)cc1` [Compound 3d, N-(5-Acetamido-3,4-dihydroisoquinolin-2(1H)-yl)-4-ethylbenzamide], the melting point fell in the range of 295 to 297 °C. The IC50 in data set [1] (setting [6]) was greater than 33.7 µg/mL. Besides, in data set [2], the IC50 was greater than 33.7 µg/mL. Further, in data set [3], the IC50 was greater than 33.7 µg/mL. Besides, the “antiproliferative activity in words” value in data set [4] is “completely inactive”.

As to `COc1ccc(S(=O)(=O)NN2CCc3c(cccc3OS(=O)(=O)c3ccc(OC)cc3)C2)cc1` [Compound 3l, 2-(4-Methoxyphenylsulfonamido)-1,2,3,4-tetrahydroisoquinolin-5-yl-4-methoxybenzene-sulfonate], the melting point was in the range of 182 to 183 °C. Also, the IC50 in data set [1] (setting [6]) was greater than 50.5 µg/mL. The 50% inhibitory concentration (IC50) in data set [2] is greater than 50.5 µg/mL. In addition, the IC50 in data set [3] is greater than 50.5 µg/mL. In data set [4], the “antiproliferative activity in words” value is “completely inactive”.

The compound `CCc1ccc(C(=O)NN2CCc3cc(OC)c(OC)cc3C2C(C)C)cc1` (centres unmarked) [Compound 4c, 4-Ethyl-N-(1-isopropyl-6,7-dimethoxy-3,4-dihydroisoquinolin-2(1H)-yl)benzamide] yielded a melting point of 162 to 163 °C. In addition, in data set [1] (setting [6]), the IC50 was 15 µg/mL. For the same compound, in data set [2], the IC50 is greater than 38.2 µg/mL. For the same compound, the IC50 in data set [3] is greater than 38.2 µg/mL. Moreover, the “antiproliferative activity in words” value in data set [4] is “completely inactive”.

In the case of `CCc1ccc(C(=O)NN2CCc3cc(Cl)ccc3C2)cc1` [Compound 4e, N-(6-Chloro-3,4-dihydroisoquinolin-2(1H)-yl)-4-ethylbenzamide], the melting point lay within 205 to 206 °C. Also, the IC50 in data set [1] (read-out: IC50 against Ishikawa cell line) is less than 7.87 µg/mL. Also, the IC50 in data set [1] (setting [6]) worked out at 0.98 µg/mL. Besides, the IC50 in data set [2] is 2.49 µg/mL. Further, the IC50 in data set [3] amounted to 3.74 µg/mL.

`CCc1ccc(C(=O)NN2CCc3cc(OC(=O)c4ccc(CC)cc4)ccc3C2C(=O)OC)cc1` (centres unmarked) [Compound 4f, Methyl-2-(4-ethylbenzamido)-6-((4-ethylbenzoyl)oxy)-1,2,3,4-tetrahydroisoquinoline-1-carboxylate] registered a melting point of 150 to 152 °C. Further, the IC50 in data set [1] (setting [6]) stood at 45.6 µg/mL. Further, the IC50 in data set [2] was greater than 48.6 µg/mL. In addition, in data set [3], the IC50 is greater than 48.6 µg/mL. Also, the “antiproliferative activity in words” value in data set [4] is “completely inactive”.

Values taken from patent US10730840B2, “Substituted tetrahydroisoquinoline ethylbenzamide anti-cancer agents” (Florida A&M University, priority 2017, dated 2020).
